From patent US7175850B2, “Formulation for topical non-invasive application in vivo” (Idea AG, priority 1998, dated 2007)

Tests used:
[1] = Biodistribution after epicutaneous application (blood, skin); format: in vivo, mice
Experimental: Drug in the Carrier (Transfersome) Suspensions. The formulations used in the biodistribution studies were labelled with the tritiurated corticosteroids purchased from Amersham or ICN. Preparation of the formulations for the use in animals was done by dissolving all lipoids in methanol/chloroform (1/1 v/v) in the appropriate amounts and preparing a dry mixed lipid film under vacuum (≦10 Pa;≧12 h). The use of potentially harmful organic solvents or drying was entirely avoided in the manufacturing of human medications.
In vivo Experiments mainly involved 8–12 weeks old NMRI mice which were kept under standard laboratory conditions (3–5 per suspending cage; standard chew and water ad libitum; 12 h light/dark regime). Stressful or painful manipulations were always carried out under general injection anesthesia.
Biodistribution. The hair at the chosen skin site was trimmed with a pair of scissors to the length of ≦2 mm one day before experimentation. The precise application site on the upper back was marked and the appropriate amount (0.5 μL to 25 μL) and drug formulation was applied with a micro-pipette on the skin. After uniform distribution with the side of the same pipette tip, the application was left to dry.
Blood samples (20 μL) were taken from the tail end with a glass capillary. After 8 hours the animals were killed by heart puncture and the treated skin area was undermined and carefully excised. The outermost layers of the stratum corneum were collected by five tape-strippings. Subsequently, the residual skin tissue and other organ samples were prepared, destained and used for radioactivity counting. For the experiments with porcine skin, […] of full thickness organ was excised and fixed on a wet tissue. Several test areas of 1 cm^2 were then marked and treated further as in vivo.

[2] = Ratio of corticosteroid concentration in blood and inner skin, calculated for humans
Experimental: The area dose will normally be between 0.1 μg cm^−2 and 1 μg cm^−2, for the high and low potency drugs, respectively.

Row | SMILES | Ratio of corticosteroid concentration in the blood and in the 'inner skin' (mouse) ([1]; dose 0.5 μg/cm^−2, measured) | Ratio of corticosteroid concentration in the blood and in the 'inner skin' (mouse) ([1]; dose 4.9 μg/cm^−2, measured) | Ratio of corticosteroid concentration in the blood and in the 'inner skin' (mouse) ([1]; dose 49.5 μg/cm^−2, measured) | Ratio of corticosteroid concentration in the blood and in the 'inner skin' (human) ([2]; dose 1.3 μg/cm^−2) | Ratio of corticosteroid concentration in the blood and in the 'inner skin' (human) ([2]; dose 13.2 μg/cm^−2) | Ratio of corticosteroid concentration in the blood and in the 'inner skin' (human) ([2]; dose 20.6 μg/cm^−2) | Ratio of corticosteroid concentration in the blood and in the 'inner skin' (mouse) ([1]; dose 1.3 μg/cm^−2, measured) | Ratio of corticosteroid concentration in the blood and in the 'inner skin' (mouse) ([1]; dose 13.2 μg/cm^−2, measured) | Ratio of corticosteroid concentration in the blood and in the 'inner skin' (mouse) ([1]; dose 20.6 μg/cm^−2, measured)
1 | C[C@@H]1C[C@H]2[C@@H]3CCC4=CC(=O)C=C[C@]4(C)[C@@]3(F)[C@@H](O)C[C@]2(C)[C@@]1(O)C(=O)CO [Dexamethasone, dexamethasone] | 0 | 0.1 | 0.25 |  |  |  |  |  | 
2 | C[C@]12CCC(=O)C=C1CC[C@@H]1[C@@H]2[C@@H](O)C[C@@]2(C)[C@H]1CC[C@]2(O)C(=O)CO [Hydrocortisone, hydrocortisone] | 0 | 0.012 | 0.015 |  |  |  |  |  | 
3 | CC1(C)O[C@@H]2C[C@H]3[C@@H]4CCC5=CC(=O)C=C[C@]5(C)[C@@]4(F)[C@@H](O)C[C@]3(C)[C@]2(C(=O)CO)O1 [Triamcinolone-acetonide, triamcinolone-acetonide] |  |  |  | 0.00007 | 0.00011 | 0.0001 | 0.02 | 0.04 | 0.03
